Results taken from PubChem BioAssay (NCI).
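Each compound was tested at five concentrations against cells in 96-well plates for 48 hours. Definition used: TGI = concentration required for complete inhibition of growth.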

Tests used:
Assay in all cases: NCI tumour cell line growth inhibition, 48 h
[1] = system: MOLT-4 leukemia
[2] = system: OVCAR-3 ovarian
[3] = system: SF-295 CNS
[4] = system: RXF 393 renal
[5] = system: NCI-H23 lung
[6] = system: XF 498 CNS
[7] = system: HCC-2998 colon
[8] = system: UACC-62 melanoma
[9] = system: SW-620 colon
[10] = system: SK-MEL-5 melanoma
[11] = system: SK-OV-3 ovarian
[12] = system: HT29 colon
[13] = system: EKVX NSCLC
[14] = system: NCI-H522 lung
[15] = system: SK-MEL-28 melanoma
[16] = system: MALME-3M melanoma
[17] = system: ACHN renal
[18] = system: HOP-62 NSCLC
[19] = system: IGROV1 ovarian
[20] = system: COLO 205 colon
[21] = system: SF-539 CNS
[22] = system: U251 CNS
[23] = system: CCRF-CEM leukemia
[24] = system: DMS 114 small cell lung
[25] = system: NCI-H226 lung
[26] = system: RXF-631 renal
[27] = system: SR leukemia
[28] = system: 786-0 renal
[29] = system: KM12 colon
[30] = system: OVCAR-5 ovarian
[31] = system: SNB-19 CNS
[32] = system: NCI-H460 lung
[33] = system: CAKI-1 renal
[34] = system: LXFL 529 NSCLC
[35] = system: SK-MEL-2 melanoma
[36] = system: TK-10 renal
[37] = system: HL-60(TB) leukemia
[38] = system: DLD-1 colon
[39] = system: HCT-116 colon
[40] = system: OVCAR-8 ovarian
[41] = system: HCT-15 colon
[42] = system: HOP-92 NSCLC
[43] = system: UACC-257 melanoma
[44] = system: LOX IMVI melanoma
[45] = system: SN12C renal
[46] = system: A549 NSCLC
[47] = system: K-562 leukemia
[48] = system: SF-268 CNS
[49] = system: KM20L2 colon
[50] = system: DMS 273 small cell lung
[51] = system: RPMI-8226 leukemia
[52] = system: P388/ADR leukemia
[53] = system: UO-31 renal
[54] = system: NCI/ADR-RES ovarian
[55] = system: SNB-75 CNS
[56] = system: SNB-78 CNS
[57] = system: HOP-18 NSCLC
[58] = system: PC-3 prostate
[59] = system: HS 578T breast
[60] = system: T-47D breast
[61] = system: DU-145 prostate
[62] = system: MDA-MB-435
[63] = system: M19-MEL melanoma
[64] = system: BT-549 breast
[65] = system: A498 renal
[66] = system: SN12K1 renal
[67] = system: MDA-MB-231 breast
[68] = system: MDA-N
[69] = system: P388 leukemia
[70] = system: M14 melanoma
[71] = system: MCF7 breast
[72] = system: OVCAR-4 ovarian

Measured: TGI

N/N=c1/nc2n(c3ncccc13)C=CNN2
not listed: [52] | [53] | [54] | [55] | [56] | [57] | [58] | [59] | [60] | [61] | [62] | [63] | [64] | [65] | [66] | [67] | [68] | [69] | [70] | [71] | [72]
> 100 µM: all other assays above

O=P1(NCCCl)OCCCN1CCCl (stereo unspecified)
445 µM: [4]
422 µM: [2]
367 µM: [42]
341 µM: [33]
421 µM: [43]
448 µM: [12] | [29] | [32]
425 µM: [25]
430 µM: [66]
418 µM: [31]
438 µM: [24]
429 µM: [3] | [10] | [41]
457 µM: [19]
439 µM: [15] | [40]
453 µM: [30]
462 µM: [65]
381 µM: [37]
427 µM: [7]
391 µM: [1]
447 µM: [13] | [72]
466 µM: [47]
315 µM: [52]
> 466 µM: [28]
124 µM: [57]
440 µM: [63] | [39]
360 µM: [14]
454 µM: [5]
399 µM: [16]
424 µM: [11]
402 µM: [44]
450 µM: [54]
431 µM: [22] | [38]
428 µM: [20] | [51]
401 µM: [9]
413 µM: [21]
388 µM: [71]
426 µM: [48]
400 µM: [23]
451 µM: [56]
436 µM: [6]
437 µM: [45]
435 µM: [55]
419 µM: [8] | [35]
410 µM: [50]
441 µM: [53]
434 µM: [46] | [49]
293 µM: [69]
444 µM: [18]
not listed: [26]
> 500 µM: all other assays above

CC(=O)C1(O)CC2(c3ccccc3)C(=O)C1(c1ccccc1)C(c1ccccc1)=C2c1ccccc1 (stereo unspecified)
not listed: [7] | [15] | [17] | [35] | [52] | [54] | [57] | [58] | [59] | [60] | [61] | [62] | [64] | [66] | [67] | [68] | [69] | [71]
> 100 µM: all other assays above
